These are literature values, as cited in article PMC7463651, “Phase I/Ib Study of Tenalisib (RP6530), a Dual PI3K δ/γ Inhibitor in Patients with Relapsed/Refractory T-Cell Lymphoma” (Cancers, 2020).

Read-outs that look alike come from different tables or passages of the source.

The data set deals with PTCL/CTCL. The arrangement: method as in PMID 21245435, PMID 28641053, PMID 26101246. The settings on record: cited from earlier work.

As for `C/C=C1\NC(=O)[C@H]2CSSCC/C=C/[C@H](CC(=O)N[C@H](C(C)C)C(=O)N2)OC(=O)[C@H](C(C)C)NC1=O` [romidepsin], the “Overall response rate (ORR)” value (FDA approved single agent) was 25%.
In the case of `O=C(/C=C/c1cccc(S(=O)(=O)Nc2ccccc2)c1)NO` [belinostat], the “Overall response rate (ORR)” value (FDA approved single agent) is 26%.
brentuximab vedotin: the “Overall response rate (ORR)” value (in CD30+ T-cells) was 68%.
Regarding `C#CCC(Cc1cnc2nc(N)nc(N)c2n1)c1ccc(C(=O)N[C@@H](CCC(=O)O)C(=O)O)cc1` (stereo partly shown) [pralatrexate], the “Overall response rate (ORR)” value (FDA approved single agent) is listed as 29%.
